In the assay the test system is acetic acid-induced pain in mice. The experiment in a line: Analgesia: acetic acid-induced writhing. The assay is classed as in vivo. The note with it: 0.15 g/kg intragastric once per day 7 days. The protocol: 40 mice, 20-22 g in weight, were randomly divided into 4 groups each having 10 mice, a baicalin (0.067 g/kg) group, a baicalin magnesium (equivalent to 0.067 g/kg of baicalin) group, a blank control group (administrated with normal saline), and an aspirin positive control group (0.15 g/kg). The mice were intragastrically administrated once per day for successive 7 days. After 30 minutes of final administration, the mice were intraperitoneally injected with 0.6% acetic acid saline solution at a dose of 0.2 mL/10 g; the number of writhing responses in the mice within 15 minutes was counted. Analgesia % was calculated as follows: Analgesia %=[(average number of writhing responses of the blank control group−average number of writhing responses of the drug administration group)/average number of writhing responses of the blank control group]×100%. Single-factor variance analysis was performed on data by the SPSS19.0 statistical software, and P<0.05 was of statistical significance.

Marks after values point to notes of the source that are not given here.

Regarding `CC(=O)Oc1ccccc1C(=O)O` [Positive Control, aspirin], for the setting “vs blank control”, the Analgesia % is given as 83.3* %. Further, the Number of writhing (writhing within 15 minutes after 0.6% acetic acid i.p.) came to 4.43 ± 3.21.
